Calls of active or inactive are those of the source. The rule behind the calls is not given here.
Columns and labels:
[1] = biological target: T1, Sodium channel protein type 9 subunit alpha (Homo sapiens, UniProt Q15858); assay: Inhibition of recombinant human Nav1.7 expressed in HEK293 cells at -70 mV holding potential by patch clamp electrophysiology method; format: cell-based
[2] = Metabolic stability in human liver microsomes assessed as parent compound remaining at 0.5 uM after 10 mins; format: ADME, Microsome; details: read-out: Stability
[3] = Metabolic stability in rat liver microsomes assessed as parent compound remaining at 0.5 uM after 10 mins; format: ADME, Microsome; details: read-out: Stability
[4] = Metabolic stability in mouse liver microsomes assessed as parent compound remaining at 0.5 uM after 10 mins; format: ADME, Microsome; details: read-out: Stability
[5] = Fraction unbound in human plasma; format: ADME, cell-free
[6] = Fraction unbound in mouse plasma; format: ADME, cell-free
[7] = Permeability of the compound at pH 5.5 by PAMPA; format: ADME; details: read-out: permeability
[8] = Permeability of the compound at pH 7.4 by PAMPA; format: ADME; details: read-out: permeability
[9] = Permeability from apical to basolateral side in human Caco2 cells; format: ADME, cell-based; details: Caco-2, read-out: permeability
[10] = Permeability from basolateral to apical side in human Caco2 cells; format: ADME, cell-based; details: Caco-2, read-out: permeability
[11] = Efflux ratio of permeability in human Caco2 cells; format: ADME, cell-based; details: Caco-2
[12] = biological target: T2, Cytochrome P450 2B6 (Homo sapiens, UniProt P20813); assay: Inhibition of CYP2B6 in human liver microsomes; format: ADME; details: human, microsomes
T2 sequence (P20813 whole entry): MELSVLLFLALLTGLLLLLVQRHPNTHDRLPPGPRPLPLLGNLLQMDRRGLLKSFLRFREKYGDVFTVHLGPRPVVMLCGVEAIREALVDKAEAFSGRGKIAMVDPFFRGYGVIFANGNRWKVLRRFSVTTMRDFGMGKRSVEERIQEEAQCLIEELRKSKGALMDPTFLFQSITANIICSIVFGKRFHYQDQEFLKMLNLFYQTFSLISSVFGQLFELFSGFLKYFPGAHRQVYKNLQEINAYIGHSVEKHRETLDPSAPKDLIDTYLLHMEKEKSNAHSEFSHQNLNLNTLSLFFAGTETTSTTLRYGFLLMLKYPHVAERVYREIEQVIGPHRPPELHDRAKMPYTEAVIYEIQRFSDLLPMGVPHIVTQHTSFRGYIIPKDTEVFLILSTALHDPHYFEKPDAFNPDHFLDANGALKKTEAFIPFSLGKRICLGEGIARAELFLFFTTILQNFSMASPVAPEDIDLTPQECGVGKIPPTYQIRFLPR

[13] = biological target: T3, Cytochrome P450 2C8 (Homo sapiens, UniProt P10632); assay: Inhibition of CYP2C8 in human liver microsomes; format: ADME; details: human, microsomes
T3 sequence (P10632 whole entry): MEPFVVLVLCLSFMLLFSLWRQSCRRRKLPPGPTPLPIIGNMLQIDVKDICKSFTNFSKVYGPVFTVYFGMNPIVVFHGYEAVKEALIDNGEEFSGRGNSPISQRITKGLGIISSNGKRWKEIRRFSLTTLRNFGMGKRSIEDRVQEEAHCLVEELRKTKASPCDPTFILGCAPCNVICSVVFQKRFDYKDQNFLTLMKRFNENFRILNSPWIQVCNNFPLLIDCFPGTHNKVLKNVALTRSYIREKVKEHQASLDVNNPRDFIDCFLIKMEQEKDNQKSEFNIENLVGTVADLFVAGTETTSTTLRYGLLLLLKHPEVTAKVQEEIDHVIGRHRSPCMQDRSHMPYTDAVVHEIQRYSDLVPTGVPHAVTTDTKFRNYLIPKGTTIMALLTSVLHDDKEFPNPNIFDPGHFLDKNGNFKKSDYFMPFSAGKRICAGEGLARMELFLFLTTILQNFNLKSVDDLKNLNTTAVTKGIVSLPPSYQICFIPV

[14] = biological target: T4, Cytochrome P450 2C9 (Homo sapiens, UniProt P11712); assay: Inhibition of CYP2C9 in human liver microsomes; format: ADME; details: human, microsomes
T4 sequence (P11712 whole entry): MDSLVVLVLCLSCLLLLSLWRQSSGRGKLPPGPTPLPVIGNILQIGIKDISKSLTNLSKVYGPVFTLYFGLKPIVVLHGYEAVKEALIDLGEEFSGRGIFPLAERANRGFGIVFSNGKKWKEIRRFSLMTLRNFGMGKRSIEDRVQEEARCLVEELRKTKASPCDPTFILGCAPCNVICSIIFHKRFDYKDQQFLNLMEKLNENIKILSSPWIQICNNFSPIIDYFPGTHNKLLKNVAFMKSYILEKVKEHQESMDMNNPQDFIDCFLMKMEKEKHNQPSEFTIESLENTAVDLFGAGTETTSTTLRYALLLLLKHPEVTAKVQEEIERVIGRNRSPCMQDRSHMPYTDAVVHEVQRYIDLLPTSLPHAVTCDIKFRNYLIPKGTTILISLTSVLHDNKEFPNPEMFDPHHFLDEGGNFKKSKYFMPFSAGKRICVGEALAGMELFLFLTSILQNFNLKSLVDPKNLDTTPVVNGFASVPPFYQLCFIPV

[15] = biological target: T5, Cytochrome P450 2C19 (Homo sapiens, UniProt P33261); assay: Inhibition of CYP2C19 in human liver microsomes; format: ADME; details: human, microsomes
T5 sequence (P33261 whole entry): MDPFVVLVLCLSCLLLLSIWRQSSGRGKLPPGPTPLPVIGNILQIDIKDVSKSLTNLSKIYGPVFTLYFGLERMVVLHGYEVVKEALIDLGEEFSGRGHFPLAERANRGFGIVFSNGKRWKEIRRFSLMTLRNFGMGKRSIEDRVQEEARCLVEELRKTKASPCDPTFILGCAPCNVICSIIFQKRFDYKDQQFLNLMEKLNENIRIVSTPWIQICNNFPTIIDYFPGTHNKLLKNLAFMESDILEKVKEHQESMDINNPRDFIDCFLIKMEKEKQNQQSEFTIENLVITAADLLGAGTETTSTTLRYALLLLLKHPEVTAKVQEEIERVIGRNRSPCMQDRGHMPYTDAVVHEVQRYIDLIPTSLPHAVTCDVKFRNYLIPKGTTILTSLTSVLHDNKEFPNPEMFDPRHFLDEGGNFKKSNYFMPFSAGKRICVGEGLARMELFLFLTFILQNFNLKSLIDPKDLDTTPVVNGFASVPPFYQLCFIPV

[16] = biological target: T6, Cytochrome P450 2D6 (Homo sapiens, UniProt P10635); assay: Inhibition of CYP2D6 in human liver microsomes; format: ADME; details: human, microsomes
T6 sequence (P10635 whole entry): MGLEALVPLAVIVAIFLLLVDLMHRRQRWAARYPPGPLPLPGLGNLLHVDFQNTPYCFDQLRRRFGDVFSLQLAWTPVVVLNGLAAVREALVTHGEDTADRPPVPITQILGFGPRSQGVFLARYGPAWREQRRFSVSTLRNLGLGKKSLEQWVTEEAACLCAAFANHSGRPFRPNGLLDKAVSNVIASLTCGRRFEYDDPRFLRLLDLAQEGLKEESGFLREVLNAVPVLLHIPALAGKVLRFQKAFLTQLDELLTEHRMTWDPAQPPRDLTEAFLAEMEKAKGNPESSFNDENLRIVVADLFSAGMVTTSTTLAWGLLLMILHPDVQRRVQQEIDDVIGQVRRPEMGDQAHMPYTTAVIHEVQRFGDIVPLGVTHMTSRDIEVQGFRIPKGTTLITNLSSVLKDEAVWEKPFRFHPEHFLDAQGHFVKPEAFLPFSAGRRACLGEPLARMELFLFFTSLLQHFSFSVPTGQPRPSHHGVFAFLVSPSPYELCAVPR

[17] = biological target: T7, Cytochrome P450 3A4 (Homo sapiens, UniProt P08684); assay: Inhibition of CYP3A4 in human liver microsomes; format: ADME; details: human, microsomes
T7 sequence (P08684 whole entry): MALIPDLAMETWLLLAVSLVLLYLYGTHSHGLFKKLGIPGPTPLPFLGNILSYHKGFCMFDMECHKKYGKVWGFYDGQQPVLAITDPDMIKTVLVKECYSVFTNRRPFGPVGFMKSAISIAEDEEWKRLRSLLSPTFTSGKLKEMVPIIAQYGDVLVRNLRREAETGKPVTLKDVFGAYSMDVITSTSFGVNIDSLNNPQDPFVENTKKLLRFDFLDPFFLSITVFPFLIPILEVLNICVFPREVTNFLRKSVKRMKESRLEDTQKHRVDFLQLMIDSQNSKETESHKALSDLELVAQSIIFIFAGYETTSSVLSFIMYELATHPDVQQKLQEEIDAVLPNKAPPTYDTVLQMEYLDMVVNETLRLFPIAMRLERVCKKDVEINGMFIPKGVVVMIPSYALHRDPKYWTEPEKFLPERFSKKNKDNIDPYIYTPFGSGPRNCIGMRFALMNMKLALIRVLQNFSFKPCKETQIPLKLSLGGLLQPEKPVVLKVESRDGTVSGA

[18] = biological target: T2, Cytochrome P450 2B6; assay: Time-dependant inhibition of CYP2B6 in human liver microsomes; format: ADME
[19] = biological target: T3, Cytochrome P450 2C8; assay: Time-dependant inhibition of CYP2C8 in human liver microsomes; format: ADME
[20] = biological target: T4, Cytochrome P450 2C9; assay: Time-dependant inhibition of CYP2C9 in human liver microsomes; format: ADME
[21] = biological target: T5, Cytochrome P450 2C19; assay: Time-dependant inhibition of CYP2C19 in human liver microsomes; format: ADME
[22] = biological target: T6, Cytochrome P450 2D6; assay: Time-dependant inhibition of CYP2D6 in human liver microsomes; format: ADME
[23] = biological target: T7, Cytochrome P450 3A4; assay: Time-dependant inhibition of CYP3A4 in human liver microsomes; format: ADME
[24] = biological target: T8, Sodium channel protein type 9 subunit alpha (Mus musculus, UniProt Q62205); assay: Inhibition of recombinant mouse Nav1.7 expressed in HEK293 cells at -70 mV holding potential by patch clamp electrophysiology method; format: cell-based
T8 sequence (Q62205 whole entry): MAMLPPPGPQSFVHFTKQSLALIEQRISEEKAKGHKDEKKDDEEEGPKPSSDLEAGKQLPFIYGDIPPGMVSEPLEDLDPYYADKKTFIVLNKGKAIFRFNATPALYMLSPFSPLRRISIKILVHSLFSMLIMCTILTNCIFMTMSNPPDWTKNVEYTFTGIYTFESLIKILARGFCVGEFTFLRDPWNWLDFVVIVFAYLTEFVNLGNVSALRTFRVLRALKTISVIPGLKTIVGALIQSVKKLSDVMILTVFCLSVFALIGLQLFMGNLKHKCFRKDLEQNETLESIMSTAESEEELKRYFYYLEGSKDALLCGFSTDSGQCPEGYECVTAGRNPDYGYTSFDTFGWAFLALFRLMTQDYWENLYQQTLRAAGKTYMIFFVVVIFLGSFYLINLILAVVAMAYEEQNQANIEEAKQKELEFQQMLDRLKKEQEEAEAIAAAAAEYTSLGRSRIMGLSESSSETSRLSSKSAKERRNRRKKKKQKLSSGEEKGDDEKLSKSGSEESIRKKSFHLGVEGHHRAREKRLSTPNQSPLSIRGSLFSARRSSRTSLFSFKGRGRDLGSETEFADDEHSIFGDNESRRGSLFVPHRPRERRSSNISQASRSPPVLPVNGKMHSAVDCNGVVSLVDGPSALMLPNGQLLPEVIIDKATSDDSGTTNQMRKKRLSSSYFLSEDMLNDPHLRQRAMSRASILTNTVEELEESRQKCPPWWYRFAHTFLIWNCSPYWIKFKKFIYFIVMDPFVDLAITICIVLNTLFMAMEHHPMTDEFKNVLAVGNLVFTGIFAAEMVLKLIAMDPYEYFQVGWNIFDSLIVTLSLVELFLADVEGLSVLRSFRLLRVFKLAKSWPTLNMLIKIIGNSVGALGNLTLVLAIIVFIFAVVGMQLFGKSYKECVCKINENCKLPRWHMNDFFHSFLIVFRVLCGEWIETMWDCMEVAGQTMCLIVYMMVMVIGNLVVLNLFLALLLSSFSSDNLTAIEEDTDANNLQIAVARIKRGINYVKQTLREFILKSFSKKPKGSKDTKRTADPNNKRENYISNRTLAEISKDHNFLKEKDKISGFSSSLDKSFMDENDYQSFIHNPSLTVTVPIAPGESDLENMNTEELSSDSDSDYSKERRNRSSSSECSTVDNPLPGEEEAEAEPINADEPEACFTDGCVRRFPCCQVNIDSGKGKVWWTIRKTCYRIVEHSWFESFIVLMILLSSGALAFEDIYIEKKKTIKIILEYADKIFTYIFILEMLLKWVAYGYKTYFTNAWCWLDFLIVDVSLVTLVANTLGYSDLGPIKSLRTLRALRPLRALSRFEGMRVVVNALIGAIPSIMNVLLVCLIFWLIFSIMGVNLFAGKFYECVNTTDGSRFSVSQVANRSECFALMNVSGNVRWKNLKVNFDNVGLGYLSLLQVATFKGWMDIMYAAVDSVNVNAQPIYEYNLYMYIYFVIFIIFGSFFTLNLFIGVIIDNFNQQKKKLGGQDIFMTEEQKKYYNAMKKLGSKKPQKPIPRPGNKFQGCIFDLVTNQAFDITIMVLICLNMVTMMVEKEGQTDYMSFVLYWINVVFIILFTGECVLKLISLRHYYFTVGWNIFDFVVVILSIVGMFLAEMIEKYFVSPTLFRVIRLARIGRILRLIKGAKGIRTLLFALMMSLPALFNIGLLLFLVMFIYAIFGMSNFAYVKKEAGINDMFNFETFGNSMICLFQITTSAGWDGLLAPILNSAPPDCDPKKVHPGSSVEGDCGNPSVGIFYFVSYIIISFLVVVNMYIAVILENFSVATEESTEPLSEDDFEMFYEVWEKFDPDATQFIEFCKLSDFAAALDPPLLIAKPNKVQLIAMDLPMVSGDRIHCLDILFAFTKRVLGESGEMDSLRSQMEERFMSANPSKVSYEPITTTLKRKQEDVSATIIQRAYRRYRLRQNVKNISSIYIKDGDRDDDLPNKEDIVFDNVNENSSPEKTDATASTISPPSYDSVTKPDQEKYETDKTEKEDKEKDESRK

[25] = system: Mus musculus; assay: Analgesic activity in CD1 mouse model of formalin-induced nociception assessed as reduction in formalin-evoked paw flinching/licking response during first phase at 30 mg/kg, po pretreated for 30 mins followed by formalin treatment and measured during first 5 mins post formalin injection; format: functional, organism-based
[26] = system: Mus musculus; assay: Analgesic activity in CD1 mouse model of formalin-induced nociception assessed as reduction in formalin-evoked paw flinching/licking response during second phase at 30 mg/kg, po pretreated for 30 mins followed by formalin treatment and measured during 15 to 45 mins post formalin injection; format: functional, organism-based
[27] = Toxicity in CD1 mouse model of formalin-induced nociception assessed as prostration or sedation at 30 mg/kg, po; format: organism-based; details: in vivo
[28] = Toxicity in CD1 mouse model of formalin-induced nociception assessed as hypothermia at 30 mg/kg, po; format: organism-based; details: in vivo
[29] = biological target: T8, Sodium channel protein type 9 subunit alpha; assay: Inhibition of Nav1.7 in mouse DRG neurons at -70 mV holding potential by patch clamp electrophysiology method
[30] = Plasma concentration in CD1 mouse model of formalin-induced nociception at 30 mg/kg, po; format: ADME, organism-based; details: read-out: Cp, in vivo
[31] = Unbound plasma concentration in CD1 mouse model of formalin-induced nociception at 30 mg/kg, po; format: ADME, organism-based; details: in vivo
[32] = biological target: T1, Sodium channel protein type 9 subunit alpha; assay: Inhibition of human Nav1.7 expressed in HEK293 cells after 600 secs at -60 mV holding potential by ion works barracuda population patch clamp method; format: cell-based

| SMILES | IC50 [1] [µM] | remaining at 10 min, 0.5 µM [2] [%] | remaining at 10 min, 0.5 µM [3] [%] | fraction unbound [5] | fraction unbound [6] | Papp [8] [×10⁻⁶ cm/s] | Papp A→B [9] [×10⁻⁶ cm/s] | Papp B→A [10] [×10⁻⁶ cm/s] | efflux ratio [11] | inhibition (INH) [12] | inhibition (INH) [13] | inhibition (INH) [14] | inhibition (INH) [15] | inhibition (INH) [16] | inhibition (INH) [17] | TDI [18] | TDI [19] | TDI [20] | TDI [21] | TDI [22] | further results |
| --- | --- | --- | --- | --- | --- | --- | --- | --- | --- | --- | --- | --- | --- | --- | --- | --- | --- | --- | --- | --- | --- |
| Cn1cc(-c2ccc(C(F)(F)F)cc2)c2cc(F)c(C(=O)NS(C)(=O)=O)cc21 | 0.013 | 97 | 99 | 0.002 | 0.005 | 14 | 2 | 12.5 | 6.1 | Not Active | Not Active | Not Active | Not Active | Not Active | Not Active | Not Active | Not Active | Not Active | Not Active | Not Active | remaining at 10 min, 0.5 µM [4]: 95%; Papp [7]: 71.2 ×10⁻⁶ cm/s; TDI [23]: Not Active |
| CC(C)COc1ccc(-c2cn(C)c3cc(C(=O)NS(=O)(=O)C4CC4)c(F)cc23)cn1 | 0.019 | 100 | 78 | 0.024 | 0.006 | 25.4 | 12 | 18.9 | 1.6 | Not Active | Not Active | Not Active | Not Active | Not Active | Not Active | Not Active | Not Active | Not Active | Not Active | Not Active | remaining at 10 min, 0.5 µM [4]: 98%; Papp [7]: 85.1 ×10⁻⁶ cm/s; TDI [23]: Not Active; IC50 [24]: 0.037 µM; Activity [25]: inactive; Activity [26]: inactive; Activity [27]: Non-Toxic; Activity [28]: Non-Toxic; IC50 [29]: 0.024 µM; concentration [30]: 132 µM; Cp(f) [31]: 0.792 µM |
| Cn1cc(-c2ccc(C(F)(F)F)cc2)c2cc(F)c(C(=O)NS(=O)(=O)C3CC3)cc21 | 0.005 | 100 | 100 | 0.0025 | 0.0035 | 32.3 | 4.6 | 8.6 | 1.9 | Not Active | Not Active | Not Active | Not Active | Not Active | Not Active | Not Active | Not Active | Not Active | Not Active | Not Active | Papp [7]: 166 ×10⁻⁶ cm/s; TDI [23]: Not Active; IC50 [24]: 0.027 µM; Activity [25]: inactive; Activity [26]: inactive; Activity [27]: Non-Toxic; Activity [28]: Non-Toxic; IC50 [29]: 0.005 µM; concentration [30]: 140 µM; Cp(f) [31]: 0.49 µM |
| CC(C)COc1ncc(-c2cn(C)c3cc(C(=O)NS(C)(=O)=O)c(F)cc23)cc1Cl | 0.0011 | 100 | 85 | 0.001 | 0.002 | 20.5 | 2 | 6.7 | 3.4 | Not Active | Not Active | Not Active | Not Active | Not Active | Not Active | Not Active | Not Active | Not Active | Not Active | Not Active | remaining at 10 min, 0.5 µM [4]: 100%; Papp [7]: 49.5 ×10⁻⁶ cm/s; TDI [23]: Not Active |
| Cn1cc(-c2ccc(C(F)(F)F)cc2)c2ccc(C(=O)NS(C)(=O)=O)cc21 | 0.096 | 100 | 74 | < 0.001 | < 0.001 | 17.1 | < 1.5 | 7.6 | > 5.1 | Not Active | Not Active | Not Active | Not Active | Not Active | Not Active | Not Active | Not Active | Not Active | Not Active | Not Active | IC50 [32]: 0.088 µM; remaining at 10 min, 0.5 µM [4]: 54%; Papp [7]: 97.2 ×10⁻⁶ cm/s; TDI [23]: Not Active |
| Cn1cc(-c2ccc(C(F)F)cc2)c2cc(F)c(C(=O)NS(=O)(=O)C3CC3)cc21 | 0.012 | 93 | 82 | 0.003 | 0.007 | 6 | 8.1 | 19.5 | 2.4 | Not Active | Not Active | Not Active | Not Active | Not Active | Not Active | Not Active | Not Active | Not Active | Not Active | Not Active | remaining at 10 min, 0.5 µM [4]: 86%; Papp [7]: 32.5 ×10⁻⁶ cm/s; TDI [23]: Not Active; IC50 [24]: 0.231 µM; Activity [25]: inactive; Activity [26]: inactive; Activity [27]: Non-Toxic; Activity [28]: Non-Toxic; IC50 [29]: 0.012 µM; concentration [30]: 173 µM; Cp(f) [31]: 1.211 µM |
| Cn1cc(-c2cnc(OCC3CC3)c(Cl)c2)c2ccc(C(=O)NS(=O)(=O)C3CC3)cc21 | 0.027 | 97 | 77 | < 0.001 | 0.002 | 39.1 | < 1.5 | 11.4 | > 7.6 | Not Active | Not Active | Not Active | Not Active | Not Active | Not Active | Not Active | Not Active | Not Active | Not Active | Not Active | IC50 [32]: 0.082 µM; remaining at 10 min, 0.5 µM [4]: 93%; TDI [23]: Not Active |
